The source of these data is patent US8859559B2, “Substituted pyrazines and their use in the treatment of disease” (Boehringer Ingelheim International GmbH, priority 2011, dated 2014).

The target of the experiment is T1, ENaC (Epithelial Sodium Channel) (Mus musculus, UniProt Q61180+Q9WU38+Q9WU39).
T1 construct: Mouse kidney M-1 cells were cultivated in DMEM; endogenous in cells; host or cells: Mouse kidney M-1 cells (dexamethasone-treated, on transwell filters)
T1 sequence (Q61180 1-699): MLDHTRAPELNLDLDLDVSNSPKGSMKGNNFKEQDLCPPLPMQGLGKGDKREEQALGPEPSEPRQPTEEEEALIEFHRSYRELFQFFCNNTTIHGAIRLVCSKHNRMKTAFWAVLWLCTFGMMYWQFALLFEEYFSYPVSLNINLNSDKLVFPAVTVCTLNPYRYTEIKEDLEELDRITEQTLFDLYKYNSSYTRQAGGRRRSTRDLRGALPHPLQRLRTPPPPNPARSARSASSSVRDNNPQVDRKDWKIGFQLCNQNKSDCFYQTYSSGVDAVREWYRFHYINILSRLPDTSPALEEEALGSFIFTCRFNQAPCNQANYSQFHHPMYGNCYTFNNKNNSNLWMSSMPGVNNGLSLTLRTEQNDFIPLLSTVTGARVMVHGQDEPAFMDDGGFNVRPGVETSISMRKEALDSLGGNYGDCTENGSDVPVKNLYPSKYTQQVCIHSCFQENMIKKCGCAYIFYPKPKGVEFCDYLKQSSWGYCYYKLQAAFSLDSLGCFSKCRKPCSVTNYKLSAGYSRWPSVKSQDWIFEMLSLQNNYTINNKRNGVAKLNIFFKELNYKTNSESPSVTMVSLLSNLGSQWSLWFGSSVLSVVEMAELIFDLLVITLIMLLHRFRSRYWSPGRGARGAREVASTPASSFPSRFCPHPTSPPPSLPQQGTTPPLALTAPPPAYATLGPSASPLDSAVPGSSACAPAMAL
T1 sequence (Q9WU38 1-638): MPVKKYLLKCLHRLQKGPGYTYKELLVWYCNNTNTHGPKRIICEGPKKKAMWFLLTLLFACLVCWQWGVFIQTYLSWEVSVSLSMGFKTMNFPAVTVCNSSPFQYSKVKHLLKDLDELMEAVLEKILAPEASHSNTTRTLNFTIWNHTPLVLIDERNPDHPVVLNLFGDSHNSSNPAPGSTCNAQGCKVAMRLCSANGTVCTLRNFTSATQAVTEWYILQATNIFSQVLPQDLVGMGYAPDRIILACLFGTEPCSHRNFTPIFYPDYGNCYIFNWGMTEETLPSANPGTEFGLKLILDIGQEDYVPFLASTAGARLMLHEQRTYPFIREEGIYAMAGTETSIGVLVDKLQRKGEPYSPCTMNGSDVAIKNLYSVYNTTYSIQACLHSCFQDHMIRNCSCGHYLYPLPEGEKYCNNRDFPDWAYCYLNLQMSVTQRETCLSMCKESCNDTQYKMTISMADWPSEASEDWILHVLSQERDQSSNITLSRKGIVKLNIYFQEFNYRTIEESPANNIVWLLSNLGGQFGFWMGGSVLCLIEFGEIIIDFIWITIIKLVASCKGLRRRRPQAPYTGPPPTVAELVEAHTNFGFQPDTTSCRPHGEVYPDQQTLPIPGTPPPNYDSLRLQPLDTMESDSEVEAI
T1 sequence (Q9WU39 1-655): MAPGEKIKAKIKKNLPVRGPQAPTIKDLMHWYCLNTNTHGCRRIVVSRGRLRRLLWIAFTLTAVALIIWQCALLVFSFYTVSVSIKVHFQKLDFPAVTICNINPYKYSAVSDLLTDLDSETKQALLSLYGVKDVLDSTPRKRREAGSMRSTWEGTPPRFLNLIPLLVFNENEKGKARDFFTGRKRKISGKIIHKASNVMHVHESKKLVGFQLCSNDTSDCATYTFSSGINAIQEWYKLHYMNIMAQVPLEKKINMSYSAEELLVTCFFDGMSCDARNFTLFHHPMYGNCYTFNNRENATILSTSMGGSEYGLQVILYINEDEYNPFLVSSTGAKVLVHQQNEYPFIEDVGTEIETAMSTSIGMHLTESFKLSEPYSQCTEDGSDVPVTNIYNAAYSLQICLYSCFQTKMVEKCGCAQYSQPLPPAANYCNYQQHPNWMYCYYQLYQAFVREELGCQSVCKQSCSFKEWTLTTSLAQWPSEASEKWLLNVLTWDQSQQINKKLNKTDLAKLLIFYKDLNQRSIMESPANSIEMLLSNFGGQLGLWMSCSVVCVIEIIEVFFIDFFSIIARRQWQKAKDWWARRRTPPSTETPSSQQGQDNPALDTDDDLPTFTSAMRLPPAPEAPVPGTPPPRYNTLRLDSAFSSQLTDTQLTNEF
As to the kind of experiment: Ussing chamber: inhibition of amiloride sensitive short circuit current (I_sc) in M-1 cells. In kind it is cell-based. As to conditions: mouse kidney M-1 cells. How it is done: Mouse kidney M-1 cells were cultivated in DMEM containing 5% FCS and 5 μM dexamethasone for 10 to 12 days on polyester transwell filters. Filters were inserted into a teflon-coated well-plate which fit into the in-house ussing chamber system. Prior to measurement the medium of M-1 cells was replaced with Caco-2 transport buffer (Invitrogen, Germany). During measurements, the Ussing chamber temperature was kept at 37° C. Short circuit currents (I_sc) were measured in the voltage-clamp mode using an in-house built amplifier (Boehringer Ingelheim, Biberach) with the software package Lab View for data acquisition and analysis. The transepithelial electrical resistance (TEER) was determined by the application of voltage steps of ±5 mV every 5 sec. Compounds were administered at a final concentration of 3 μM or at increasing concentrations (1-3-10 μM) to the apical solution. At the end of each experiment the amiloride sensitive I_SC was measured by adding 3 μM amiloride to the apical compartment. Results are expressed as inhibition in percent of the amiloride effect or as IC50. With the example compounds given above, the following IC50 values were determined in the Ussing Chamber assay: […]

What is called IC50 is the midpoint of a concentration-inhibition curve. Low values mean greater potency, high ones weaker potency. The compound `CCOP(=O)(Cc1ccc(CN2CCC(NC(N)=NC(=O)c3nc(Cl)c(N)nc3N)CC2)cc1)OCC` [Example 1.8] came in with an IC50 of 10 nM.
In the case of `NC(=NC(=O)c1nc(Cl)c(N)nc1N)NC1CCN(Cc2ccc(CCC(=O)O)cc2)CC1` [Example 8.14] it was 30 nM; in that of `NC(=NC(=O)c1nc(Cl)c(N)nc1N)NC1CCN(Cc2ccc(C(=O)O)cc2Cl)CC1` [Example 8.11], 50 nM; in that of `CN(Cc1cn(CCc2ccc(CN3CCC(NC(N)=NC(=O)c4nc(Cl)c(N)nc4N)CC3)cc2)nn1)C(=O)CCNCCOCCOCCOCCO` [Example 5.2], 14 nM.
In the case of `NC(=NC(=O)c1nc(Cl)c(N)nc1N)NC1CCN(Cc2ccc(CCc3cccnc3)cc2)CC1` [Example 1.57] it was 5 nM; in that of `N/C(=N\C(=O)c1nc(Cl)c(N)nc1N)NC1CCN(Cc2ccc(C(=O)NCCCS(=O)(=O)O)cc2)CC1` [Example 2.1], 12 nM.
Under `[N-]=[N+]=NCCOCCOCCOCCn1cc(COc2ccc(CN3CCC(NC(N)=NC(=O)c4nc(Cl)c(N)nc4N)CC3)cc2)nn1` [Example 3.22] stands 2 nM; under `COc1cc(CN2CCC(NC(N)=NC(=O)c3nc(Cl)c(N)nc3N)CC2)cc(C(=O)O)c1` [Example 1.64], 17 nM.
The compound `N#Cc1ccc(OCCN2CCC(NC(N)=NC(=O)c3nc(Cl)c(N)nc3N)CC2)cc1` [Example 1.21] registered an IC50 of 11 nM.
In the case of `CN(C)CCN(CCN(C)C)C(=O)c1ccc(CN2CCC(NC(N)=NC(=O)c3nc(Cl)c(N)nc3N)CC2)cc1` [Example 2.2] it was 6 nM; in that of `[N-]=[N+]=NCCOCCOCCOCCOc1ccc(CN2CCC(NC(N)=NC(=O)c3nc(Cl)c(N)nc3N)CC2)cc1` [Example 1.18], 7 nM; in that of `COC(=O)COc1ccc(CN2CCC(N/C(N)=N/C(=O)c3nc(Br)c(N)nc3N)CC2)cc1` [Example 1.68], 11 nM.
Under `CN(Cc1cn(CCc2ccc(CN3CCC(N/C(N)=N/C(=O)c4nc(Cl)c(N)nc4N)CC3)cc2)nn1)C(=O)CCN` [Example 4.1] stands 9 nM.
Compound `COC(=O)c1ccc(CN2CCC(N/C(N)=N/C(=O)c3nc(Cl)c(N)nc3N)CC2)c(OC)c1` [Example 1.1] returned an IC50 of 5 nM.
With `N/C(=N\C(=O)c1nc(Cl)c(N)nc1N)NC1CCN(Cc2ccc(OCc3cn(CCOCCOCCOCCOCCOCCO)nn3)cc2)CC1` [Example 5.1], inhibition was half-maximal at 42 nM (IC50).
In the case of `COC(=O)c1ccccc1CN1CCC(NC(N)=NC(=O)c2nc(Cl)c(N)nc2N)CC1` [Example 1.43] it was 15 nM; in that of `NC(=NC(=O)c1nc(Cl)c(N)nc1N)NC1CCN(Cc2cccc(-c3cn(CCOCCOCCOCCO)nn3)c2)CC1` [Example 3.36], 4 nM.
Under `C#CCCCCOC(=O)c1ccc(CN2CCC(NC(N)=NC(=O)c3nc(Cl)c(N)nc3N)CC2)cc1` [Example 1.9] stands 8 nM; under `C#Cc1ccc(CN2CCC(NC(N)=NC(=O)c3nc(Cl)c(N)nc3N)CC2)cc1` [Example 1.50], 5 nM; under `COC(=O)Cc1ccc(CN2CCC(NC(N)=NC(=O)c3nc(Cl)c(N)nc3N)CC2)cc1` [Example 1.38], 8 nM.
Under `NC(=NC(=O)c1nc(Cl)c(N)nc1N)NC1CCN(Cc2ccc(Cn3cc(C(=O)O)ccc3=O)cc2)CC1` [Example 8.12] stands 39 nM; under `C#CCOc1ccc(CN2CCC(NC(N)=NC(=O)c3nc(Cl)c(N)nc3N)CC2)cc1` [Example 1.4], 4 nM.
Regarding `CN(C)CCCOc1ccc(CN2CCC(NC(N)=NC(=O)c3nc(Cl)c(N)nc3N)CC2)cc1` [Example 1.34], it took 5 nM to reach half-maximal inhibition (IC50).
Under `N/C(=N\C(=O)c1nc(Cl)c(N)nc1N)NC1CCN(Cc2ccc(O)cc2)CC1` [Example 1.31] stands 7 nM; under `N/C(=N\C(=O)c1nc(Cl)c(N)nc1N)NC1CCN(Cc2ccc(CP(=O)(O)O)cc2)CC1` [Example 7.1], 477 nM; under `CN(C)Cc1cn(CCc2ccc(CN3CCC(NC(N)=NC(=O)c4nc(Cl)c(N)nc4N)CC3)cc2)nn1` [Example 3.4], 7 nM.
Under `CC(C)(C)[Si](C)(C)OCCN(CCO[Si](C)(C)C(C)(C)C)C(=O)c1ccc(=O)n(CCc2cn(-c3ccc(CN4CCC(NC(N)=NC(=O)c5nc(Cl)c(N)nc5N)CC4)cc3)nn2)c1` [Example 3.17] stands 3 nM; under `COc1ccc(C(=O)CN2CCC(NC(N)=NC(=O)c3nc(Cl)c(N)nc3N)CC2)cc1` [Example 1.20], 11 nM.
In the case of `NC(=NC(=O)c1nc(Cl)c(N)nc1N)NC1CCN(Cc2ccc(OCc3cn(CCOCCOCCOCCO)nn3)cc2)CC1` [Example 3.21] it was 12 nM; in that of `NCCOCCOCCNC(=O)c1ccc(CN2CCC(NC(N)=NC(=O)c3nc(Cl)c(N)nc3N)CC2)cc1` [Example 1.47], 3 nM.
On to `NC(N)=NCc1ccc(CN2CCC(N/C(N)=N/C(=O)c3nc(Cl)c(N)nc3N)CC2)cc1` [Example 10.1], for which the IC50 came to 3 nM.
In the case of `NC(=NC(=O)c1nc(Cl)c(N)nc1N)NC1CCN(Cc2cc(C(=O)O)cc(C(=O)NCCOCCO)c2)CC1` [Example 8.6] it was 53 nM; in that of `NC(=NC(=O)c1nc(Cl)c(N)nc1N)NC1CCN(Cc2ccc(OCC(=O)O)c(OCC(=O)O)c2)CC1` [Example 8.5], 151 nM; in that of `CN(Cc1cn(CCc2ccc(CN3CCC(NC(N)=NC(=O)c4nc(Cl)c(N)nc4N)CC3)cc2)nn1)C(=O)CCNC(=O)OC(C)(C)C` [Example 3.5], 7 nM.
In the case of `NC(=NC(=O)c1nc(Cl)c(N)nc1N)NC1CCN(Cc2ccc(CC(=O)O)cc2)CC1` [Example 8.13] it was 44 nM; in that of `N/C(=N\C(=O)c1nc(Cl)c(N)nc1N)NC1CCN(Cc2ccc(-c3cn(CCOCCOCCO)nn3)cc2)CC1` [Example 5.4], 3 nM; in that of `NC(=NC(=O)c1nc(Cl)c(N)nc1N)NC1CCN(Cc2ccc(-c3cn(CCOCCOCCOCCNC(=O)c4cc(OCCOCCOCCOCCOC(c5ccccc5)(c5ccccc5)c5ccccc5)cc(OCCOCCOCCOCCOC(c5ccccc5)(c5ccccc5)c5ccccc5)c4)nn3)cc2)CC1` [Example 3.31], 49 nM.
Under `NC(=NC(=O)c1nc(Cl)c(N)nc1N)NC1CCN(Cc2cccc(-c3cn(CCOCCOCCOCCOCCOCCOC(c4ccccc4)(c4ccccc4)c4ccccc4)nn3)c2)CC1` [Example 3.37] stands 9 nM; under `CN(Cc1cn(-c2ccc(CN3CCC(NC(N)=NC(=O)c4nc(Cl)c(N)nc4N)CC3)cc2)nn1)C(=O)CCN` [Example 4.2], 4 nM.
